Tests used:
B2 bradykinin receptor [1] = target: T1, B2 bradykinin receptor (Cavia porcellus, UniProt O70526); experiment: In vitro antagonistic activity for Bradykinin receptor B2 by guinea pig ileal membrane receptor assay.; type: functional
T1 sequence (O70526 whole entry): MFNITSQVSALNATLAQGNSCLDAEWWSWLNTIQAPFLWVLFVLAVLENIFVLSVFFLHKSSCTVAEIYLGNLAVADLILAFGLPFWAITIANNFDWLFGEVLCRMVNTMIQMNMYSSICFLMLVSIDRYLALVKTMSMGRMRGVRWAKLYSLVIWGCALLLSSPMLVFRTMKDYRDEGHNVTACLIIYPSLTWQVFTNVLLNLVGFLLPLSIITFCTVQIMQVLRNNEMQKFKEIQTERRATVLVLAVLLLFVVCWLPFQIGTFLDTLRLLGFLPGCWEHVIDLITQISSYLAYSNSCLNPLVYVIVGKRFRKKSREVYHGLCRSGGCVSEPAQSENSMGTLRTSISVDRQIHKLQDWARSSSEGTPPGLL

B2 bradykinin receptor [2] = target: T1, B2 bradykinin receptor; experiment: In vitro antagonistic activity for Bradykinin receptor B2 by guinea pig pulmonary artery assay.; type: functional
Rattus norvegicus [3] = experiment: Distribution in bladder and urine of healthy rat 24 hr after iv injection into the femoral vein; type: ADME, organism-based, Urinary bladder/Urine; settings: in vivo
Rattus norvegicus [4] = experiment: Distribution in bladder and urine of healthy rat 30 min after iv injection into the femoral vein; type: ADME, organism-based, Urinary bladder/Urine; settings: in vivo, 0.5 h
Rattus norvegicus [5] = experiment: Distribution in bladder and urine of healthy rat 4 hr after iv injection into the femoral vein; type: ADME, organism-based, Urinary bladder/Urine; settings: in vivo
Rattus norvegicus [6] = experiment: Distribution in bladder and urine of healthy rat 5 min after iv injection into the femoral vein; type: ADME, organism-based, Urinary bladder/Urine; settings: in vivo
Rattus norvegicus [7] = experiment: Distribution in blood of healthy rat 15 min after iv injection into the femoral vein; type: ADME, organism-based; settings: in vivo, 0.25 h
Rattus norvegicus [8] = experiment: Distribution in blood of healthy rat 24 hr after iv injection into the femoral vein; type: ADME, organism-based; settings: in vivo
Rattus norvegicus [9] = experiment: Distribution in blood of healthy rat 30 min after iv injection into the femoral vein; type: ADME, organism-based; settings: in vivo, 0.5 h
Rattus norvegicus [10] = experiment: Distribution in blood of healthy rat 4 hr after iv injection into the femoral vein; type: ADME, organism-based; settings: in vivo
Rattus norvegicus [11] = experiment: Distribution in blood of healthy rat 5 min after iv injection into the femoral vein; type: ADME, organism-based; settings: in vivo
Rattus norvegicus [12] = experiment: Distribution in colon of healthy rat 15 min after iv injection into the femoral vein; type: ADME, organism-based; settings: in vivo, 0.25 h
Rattus norvegicus [13] = experiment: Distribution in colon of healthy rat 24 hr after iv injection into the femoral vein; type: ADME, organism-based; settings: in vivo
Rattus norvegicus [14] = experiment: Distribution in colon of healthy rat 30 min after iv injection into the femoral vein; type: ADME, organism-based; settings: in vivo, 0.5 h
Rattus norvegicus [15] = experiment: Distribution in colon of healthy rat 4 hr after iv injection into the femoral vein; type: ADME, organism-based; settings: in vivo
Rattus norvegicus [16] = experiment: Distribution in colon of healthy rat 5 min after iv injection into the femoral vein; type: ADME, organism-based; settings: in vivo
Rattus norvegicus [17] = experiment: Distribution in content of colon of healthy rat 15 min after iv injection into the femoral vein; type: ADME, organism-based; settings: in vivo, 0.25 h
Rattus norvegicus [18] = experiment: Distribution in content of colon of healthy rat 24 hr after iv injection into the femoral vein; type: ADME, organism-based; settings: in vivo
Rattus norvegicus [19] = experiment: Distribution in content of colon of healthy rat 30 min after iv injection into the femoral vein; type: ADME, organism-based; settings: in vivo, 0.5 h
Rattus norvegicus [20] = experiment: Distribution in content of colon of healthy rat 4 hr after iv injection into the femoral vein; type: ADME, organism-based; settings: in vivo
Rattus norvegicus [21] = experiment: Distribution in content of colon of healthy rat 5 min after iv injection into the femoral vein; type: ADME, organism-based; settings: in vivo
Rattus norvegicus [22] = experiment: Distribution in content of small intestine of healthy rat 15 min after iv injection into the femoral vein; type: ADME, organism-based; settings: in vivo, 0.25 h
Rattus norvegicus [23] = experiment: Distribution in content of small intestine of healthy rat 30 min after iv injection into the femoral vein; type: ADME, organism-based; settings: in vivo, 0.5 h
Rattus norvegicus [24] = experiment: Distribution in content of small intestine of healthy rat 4 hr after iv injection into the femoral vein; type: ADME, organism-based; settings: in vivo
Rattus norvegicus [25] = experiment: Distribution in content of small intestine of healthy rat 5 min after iv injection into the femoral vein; type: ADME, organism-based; settings: in vivo
[26] = Distribution in feces of healthy rat 24 hr after iv injection into the femoral vein; type: ADME, organism-based; settings: faeces, read-out: Organ distribution
Rattus norvegicus [27] = experiment: Distribution in lung of healthy rat 24 hr after iv injection into the femoral vein; type: ADME, organism-based; settings: in vivo
Rattus norvegicus [28] = experiment: Distribution in lung of healthy rat 30 min after iv injection into the femoral vein; type: ADME, organism-based; settings: in vivo, 0.5 h
Rattus norvegicus [29] = experiment: Distribution in lung of healthy rat 4 hr after iv injection into the femoral vein; type: ADME, organism-based; settings: in vivo
Rattus norvegicus [30] = experiment: Distribution in lung of healthy rat 5 min after iv injection into the femoral vein; type: ADME, organism-based; settings: in vivo
Rattus norvegicus [31] = experiment: Distribution in small intestine of healthy rat 15 min after iv injection into the femoral vein; type: ADME, organism-based; settings: in vivo, 0.25 h
Rattus norvegicus [32] = experiment: Distribution in small intestine of healthy rat 24 hr after iv injection into the femoral vein; type: ADME, organism-based; settings: in vivo
Rattus norvegicus [33] = experiment: Distribution in small intestine of healthy rat 30 min after iv injection into the femoral vein; type: ADME, organism-based; settings: in vivo, 0.5 h
Rattus norvegicus [34] = experiment: Distribution in small intestine of healthy rat 4 hr after iv injection into the femoral vein; type: ADME, organism-based; settings: in vivo
Rattus norvegicus [35] = experiment: Distribution in small intestine of healthy rat 5 min after iv injection into the femoral vein; type: ADME, organism-based; settings: in vivo
Rattus norvegicus [36] = experiment: Distribution in spleen of healthy rat 15 min after iv injection into the femoral vein; type: ADME, organism-based; settings: in vivo, 0.25 h
Rattus norvegicus [37] = experiment: Distribution in spleen of healthy rat 24 hr after iv injection into the femoral vein; type: ADME, organism-based; settings: in vivo
Rattus norvegicus [38] = experiment: Distribution in spleen of healthy rat 30 min after iv injection into the femoral vein; type: ADME, organism-based; settings: in vivo, 0.5 h
Rattus norvegicus [39] = experiment: Distribution in spleen of healthy rat 4 hr after iv injection into the femoral vein; type: ADME, organism-based; settings: in vivo
Rattus norvegicus [40] = experiment: Distribution in stomach of healthy rat 15 min after iv injection into the femoral vein; type: ADME, organism-based; settings: in vivo, 0.25 h
Rattus norvegicus [41] = experiment: Distribution in stomach of healthy rat 24 hr after iv injection into the femoral vein; type: ADME, organism-based; settings: in vivo
Rattus norvegicus [42] = experiment: Distribution in stomach of healthy rat 30 min after iv injection into the femoral vein; type: ADME, organism-based; settings: in vivo, 0.5 h
Rattus norvegicus [43] = experiment: Distribution in stomach of healthy rat 4 hr after iv injection into the femoral vein; type: ADME, organism-based; settings: in vivo
Rattus norvegicus [44] = experiment: Distribution in stomach of healthy rat 5 min after iv injection into the femoral vein; type: ADME, organism-based; settings: in vivo
Rattus norvegicus [45] = experiment: Distribution in thyroid gland of healthy rat 15 min after iv injection into the femoral vein; type: ADME, organism-based; settings: in vivo, 0.25 h
Rattus norvegicus [46] = experiment: Distribution in thyroid gland of healthy rat 24 hr after iv injection into the femoral vein; type: ADME, organism-based; settings: in vivo
Rattus norvegicus [47] = experiment: Distribution in thyroid gland of healthy rat 30 min after iv injection into the femoral vein; type: ADME, organism-based; settings: in vivo, 0.5 h
Rattus norvegicus [48] = experiment: Distribution in thyroid gland of healthy rat 4 hr after iv injection into the femoral vein; type: ADME, organism-based; settings: in vivo
Rattus norvegicus [49] = experiment: Distribution in thyroid gland of healthy rat 5 min after iv injection into the femoral vein; type: ADME, organism-based; settings: in vivo
Rattus norvegicus [50] = experiment: Distribution in lung of healthy rat 15 min after iv injection into the femoral vein; type: ADME, organism-based; settings: in vivo, 0.25 h
Rattus norvegicus [51] = experiment: Distribution in kidney of healthy rat 15 min after iv injection into the femoral vein; type: ADME, organism-based; settings: in vivo, 0.25 h
Rattus norvegicus [52] = experiment: Distribution in kidney of healthy rat 24 hr after iv injection into the femoral vein; type: ADME, organism-based; settings: in vivo
Rattus norvegicus [53] = experiment: Distribution in kidney of healthy rat 4 hr after iv injection into the femoral vein; type: ADME, organism-based; settings: in vivo
Rattus norvegicus [54] = experiment: Distribution in kidney of healthy rat 5 min after iv injection into the femoral vein; type: ADME, organism-based; settings: in vivo
Rattus norvegicus [55] = experiment: Distribution in liver of healthy rat 15 min after iv injection into the femoral vein; type: ADME, organism-based; settings: in vivo, 0.25 h
Rattus norvegicus [56] = experiment: Distribution in liver of healthy rat 24 hr after iv injection into the femoral vein; type: ADME, organism-based; settings: in vivo
Rattus norvegicus [57] = experiment: Distribution in liver of healthy rat 30 min after iv injection into the femoral vein; type: ADME, organism-based; settings: in vivo, 0.5 h
Rattus norvegicus [58] = experiment: Distribution in liver of healthy rat 4 hr after iv injection into the femoral vein; type: ADME, organism-based; settings: in vivo
Rattus norvegicus [59] = experiment: Distribution in liver of healthy rat 5 min after iv injection into the femoral vein; type: ADME, organism-based; settings: in vivo
Rattus norvegicus [60] = experiment: Distribution in spleen of healthy rat 5 min after iv injection into the femoral vein; type: ADME, organism-based; settings: in vivo
Rattus norvegicus [61] = experiment: Distribution in kidney of healthy rat 30 min after iv injection into the femoral vein; type: ADME, organism-based; settings: in vivo, 0.5 h
Rattus norvegicus [62] = experiment: Distribution in bladder and urine of healthy rat 15 min after iv injection into the femoral vein; type: ADME, organism-based, Urinary bladder/Urine; settings: in vivo, 0.25 h
Rattus norvegicus [63] = experiment: Distribution in content of small intestine of healthy rat 24 hr after iv injection into the femoral vein; type: ADME, organism-based; settings: in vivo

N=C(N)NCCC[C@H](NC(=O)[C@@H]1C[C@@H]2CCCC[C@@H]2N1C(=O)[C@H]1Cc2ccccc2CN1C(=O)[C@H](CO)NC(=O)[C@H](Cc1cccs1)NC(=O)CNC(=O)[C@@H]1C[C@@H](O)CN1C(=O)[C@@H]1CCCN1C(=O)[C@H](CCCNC(=N)N)NC(=O)[C@@H](CCCNC(=N)N)NC(=O)c1ccc(CN2CCCNCCNCCCNCC2)cc1)C(=O)O
IC50 (B2 bradykinin receptor [1]): 8.03 nM | IC50 (B2 bradykinin receptor [2]): 14 nM | Organ distribution (Rattus norvegicus [3]): 79.9% | Organ distribution (Rattus norvegicus [4]): 33% | Organ distribution (Rattus norvegicus [5]): 74.9% | Organ distribution (Rattus norvegicus [6]): 3.83% | Organ distribution (Rattus norvegicus [7]): 8.62% | Organ distribution (Rattus norvegicus [8]): 0.5% | Organ distribution (Rattus norvegicus [9]): 5.5% | Organ distribution (Rattus norvegicus [10]): 0.5% | Organ distribution (Rattus norvegicus [11]): 13.2% | Organ distribution (Rattus norvegicus [12]): 0.65% | Organ distribution (Rattus norvegicus [13]): 0.09% | Organ distribution (Rattus norvegicus [14]): 0.48% | Organ distribution (Rattus norvegicus [15]): 0.44% | Organ distribution (Rattus norvegicus [16]): 1% | Organ distribution (Rattus norvegicus [17]): 0.2% | Organ distribution (Rattus norvegicus [18]): 0.56% | Organ distribution (Rattus norvegicus [19]): 0.17% | Organ distribution (Rattus norvegicus [20]): 6.96% | Organ distribution (Rattus norvegicus [21]): 0.22% | Organ distribution (Rattus norvegicus [22]): 2.79% | Organ distribution (Rattus norvegicus [23]): 4.84% | Organ distribution (Rattus norvegicus [24]): 1.85% | Organ distribution (Rattus norvegicus [25]): 1.83% | dose excreted at 24 h [26]: 8.4% | Organ distribution (Rattus norvegicus [27]): 0.04% | Organ distribution (Rattus norvegicus [28]): 0.55% | Organ distribution (Rattus norvegicus [29]): 0.1% | Organ distribution (Rattus norvegicus [30]): 1.2% | Organ distribution (Rattus norvegicus [31]): 3.74% | Organ distribution (Rattus norvegicus [32]): 0.19% | Organ distribution (Rattus norvegicus [33]): 1.67% | Organ distribution (Rattus norvegicus [34]): 0.71% | Organ distribution (Rattus norvegicus [35]): 2.92% | Organ distribution (Rattus norvegicus [36]): 0.19% | Organ distribution (Rattus norvegicus [37]): 0.08% | Organ distribution (Rattus norvegicus [38]): 0.19% | Organ distribution (Rattus norvegicus [39]): 0.12% | Organ distribution (Rattus norvegicus [40]): 1.13% | Organ distribution (Rattus norvegicus [41]): 0.06% | Organ distribution (Rattus norvegicus [42]): 0.91% | Organ distribution (Rattus norvegicus [43]): 0.46% | Organ distribution (Rattus norvegicus [44]): 1.55% | Organ distribution (Rattus norvegicus [45]): 0.11% | Organ distribution (Rattus norvegicus [46]): 0.01% | Organ distribution (Rattus norvegicus [47]): 0.11% | Organ distribution (Rattus norvegicus [48]): 0.02% | Organ distribution (Rattus norvegicus [49]): 0.12% | Organ distribution (Rattus norvegicus [50]): 0.82% | Organ distribution (Rattus norvegicus [51]): 7% | Organ distribution (Rattus norvegicus [52]): 3.07% | Organ distribution (Rattus norvegicus [53]): 4.33% | Organ distribution (Rattus norvegicus [54]): 8.46% | Organ distribution (Rattus norvegicus [55]): 4.48% | Organ distribution (Rattus norvegicus [56]): 2.72% | Organ distribution (Rattus norvegicus [57]): 4.31% | Organ distribution (Rattus norvegicus [58]): 5.03% | Organ distribution (Rattus norvegicus [59]): 5.25% | Organ distribution (Rattus norvegicus [60]): 0.27% | Organ distribution (Rattus norvegicus [61]): 8.86% | Organ distribution (Rattus norvegicus [62]): 20.3% | Organ distribution (Rattus norvegicus [63]): 0.06%

Source: ChEMBL document CHEMBL1128686, “Technetium-99m-labeled HOE 140: a potential bradykinin B2 receptor imaging agent” (J Med Chem, 1995)
